Earlier results in patent publication US20220143227A1, “Method of Treatment of Neuroendocrine Tumors That Over-Express Somatostatatin Receptors” (ADVANCED ACCELERATOR APPLICATIONS, priority 2015, published 2022).
Like-named read-outs stand apart in the source and are kept apart here.

Key:
[1] = tested on: progressive neuroendocrine tumors of pancreatic origin, and NETs of gastrointestinal (GI) or lung origin; settings: Phase 3 trials
[2] = human, in vivo
[3] = tested on: human xenograft tumor model of NET; settings: in vivo
lymphocytes = settings: B- versus T-lymphocytes
pos-tdocetaxel CRPC = settings: phase III trial

## CO[C@H]1C[C@@H]2CC[C@@H](C)[C@@](O)(O2)C(=O)C(=O)N2CCCC[C@H]2C(=O)O[C@H]([C@H](C)C[C@@H]2CC[C@@H](OCCO)[C@H](OC)C2)CC(=O)[C@H](C)/C=C(\C)[C@@H](O)[C@@H](OC)C(=O)[C@H](C)C[C@H](C)/C=C/C=C/C=C/1C [Everolimus]
[1]
  PFS: 11 months

## C[C@@H](O)[C@H](NC(=O)[C@@H]1CSSC[C@H](NC(=O)[C@@H](Cc2ccccc2)NC(=O)CN2CCN(CC(=O)[O-])CCN(CC(=O)[O-])CCN(CC(=O)[O-])CC2)C(=O)N[C@@H](Cc2ccc(O)cc2)C(=O)N[C@H](Cc2c[nH]c3ccccc23)C(=O)N[C@@H](CCCCN)C(=O)N[C@@H]([C@@H](C)O)C(=O)N1)C(=O)O.[177Lu+3] [Lutathera, [177]Lutetium-DOTA[O]-Tyr[3]-Octreotate]
[2]
  severe hematologic toxicity Grade 3-4: 3.1 % of the cases
[3]
  CD86+ APC infiltration: increased CD86+ APC infiltration
  expression of CD86 on APC: increased expression of CD86
lymphocytes
  lymphocyte toxicity, specificity: more specific to B-lymphocytes

## ipilimumab: antibody that targets the CTLA-4/B7 receptor complex, approved for unresectable or metastatic melanoma
Advanced melanoma; 13 patients with local response
  abscopal effect among patients with local response: 85%
Advanced melanoma; 21 patients, RT after ipilimumab progression
  no local regression: 38%
Advanced melanoma; all 21 patients
  median OS: 13 months
Advanced melanoma; patients with abscopal responses
  median OS: 22.4 months
Advanced melanoma; patients without abscopal responses
  median OS: 8.3 months
pos-tdocetaxel CRPC
  improvement in OS with addition of ipilimumab to RT: no significant improvement in OS
